Read-outs that look alike come from different tables or passages of the source.
Key:
Format in all cases: cell-based
[1] = test system: CEM/ADR5000 leukemia cells; experiment: Resazurin reduction cytotoxicity assay, CEM/ADR5000; details: Homo sapiens, read-out: IC50 values
Protocol: (§1) The resazurin reduction assay was performed to assess the cytotoxicity of compounds and doxorubicin as control drug towards various sensitive and drug-resistant cancer cell lines, including the CCRF-CEM and CEM/ADR5000 leukemia, MDA-MB231 breast cancer cells and its resistant subline MDA-MB231/BCRP, HCT116p53^+/+ colon cancer cells and its resistant subline HCT116p53^−/−, U87MG glioblastoma cells and its resistant subline U87MG. ΔEGFR and HepG2 hepatocarcinoma cells and normal AML12 hepatocytes. The assay is based on the reduction of the indicator dye, resazurin, to the highly fluorescent resorufin by viable cells. […] Briefly, adherent cells were detached by treatment with 0.25% trypsin/EDTA (Invitrogen, Darmstadt Germany) and an aliquot of 1 × 10^4 cells was placed in each well of a 96-well cell culture plate (Thermo Scientific, Langenselbold, Germany) in a total volume of 200 μL. Cells were allowed to attach overnight and then were treated with different concentrations of compounds. For suspension cells, aliquots of 2 × 10^4 cells per well were seeded in 96-well-plates in a total volume of 100 μL. The studied compounds were immediately added in varying concentrations in an additional 100 μL of culture medium to obtain a total volume of 200 μL/well. After 72 h, resazurin (Sigma-Aldrich, Schnelldorf, Germany) (20 μL, 0.01% w/v) in distilled H2O was added to each well and the plates were incubated at 37°C for 4 h. Fluorescence was measured on an Infinite M2000 ProTM plate reader (Tecan, Crailsheim, Germany) using an excitation wavelength of 544 nm and an emission wavelength of 590 nm. Each assay was done at least twice with six replicates each. The viability was evaluated based on a comparison with untreated cells. IC50 values represent the compound concentrations required to inhibit 50% of cell proliferation and were calculated from a calibration curve by linear regression using Microsoft Excel.

[2] = test system: MDA-MB231 breast cancer cells; experiment: Resazurin reduction cytotoxicity assay, MDA-MB231; details: Homo sapiens, read-out: IC50 values
Protocol: as §1

MDA-MB231/BCRP cells = experiment: Resazurin reduction cytotoxicity assay, MDA-MB231/BCRP; details: MDA-MB-231/BCRP, 72 h, read-out: IC50 values
Protocol: as §1

[3] = test system: nine tested cancer cell lines; experiment: Resazurin reduction cytotoxicity assay, panel of nine cancer cell lines; details: all nine cancer cell lines, 72 h, read-out: IC50 values towards all the nine tested cancer cell lines
Protocol: as §1, with “The studied compounds were immediately added in varying concentrations in an additional 100 μL of culture medium to obtain a total volume of 200 μL/well. After 72 h, resazurin (Sigma-Aldrich, Schnelldorf, Germany) (20 μL, 0.01% w/v) in distilled H2O was added to each well and the plates were incubated at 37°C for 4 h.” left out, “Each assay was done at least twice with six replicates each.” left out, “IC50 values represent the compound concentrations required to inhibit 50% of cell proliferation and were calculated from a calibration curve by linear regression using Microsoft Excel.” left out

normal AML12 hepatocytes = experiment: Resazurin reduction cytotoxicity assay, normal AML12 hepatocytes; details: Mus musculus, read-out: IC50 values
Protocol: as §1

CCRF-CEM leukemia cells = experiment: Resazurin reduction cytotoxicity assay, CCRF-CEM; details: Homo sapiens, 72 h, read-out: IC50 values
Protocol: as §1

[4] = test system: HCT116 (p53+/+) colon cancer cells; experiment: Resazurin reduction cytotoxicity assay, HCT116 (p53+/+); details: Homo sapiens, read-out: IC50 values
Protocol: as §1

[5] = test system: HCT116 (p53-/-) colon cancer cells; experiment: Resazurin reduction cytotoxicity assay, HCT116 (p53-/-); details: Homo sapiens, read-out: IC50 values
Protocol: as §1

U87MG. ΔEGFR cells = experiment: Resazurin reduction cytotoxicity assay, U87MG.ΔEGFR; details: Homo sapiens, U-87 MG, 72 h, read-out: IC50 values
Protocol: as §1

U87MG glioblastoma cells = experiment: Resazurin reduction cytotoxicity assay, U87MG; details: Homo sapiens, U-87 MG, 72 h, read-out: IC50 values
Protocol: as §1

[6] = test system: HepG2 hepatocarcinoma cells; experiment: Resazurin reduction cytotoxicity assay, HepG2; details: Homo sapiens, read-out: IC50 values
Protocol: as §1

[7] = CEM/ADR5000 leukemia (resistant), resazurin assay, 72 h
[8] = MDA-MB-231, MDA-MB231 breast cancer cells, resazurin assay, 72 h
[9] = MDA-MB231/BCRP resistant subline, resazurin assay
[10] = normal AML12 hepatocytes, resazurin assay, 72 h
[11] = CCRF-CEM leukemia (sensitive), resazurin assay
[12] = U87MG. ΔEGFR resistant subline, resazurin assay
[13] = U87MG glioblastoma cells, resazurin assay
[14] = HepG2 hepatocarcinoma cells, resazurin assay, 72 h

Compound | IC50 [1, 7] [µM] | IC50 [2, 8] [µM] | IC50 (MDA-MB231/BCRP cells; [9]) [µM] | IC50 (normal AML12 hepatocytes; [10]) [µM] | IC50 (CCRF-CEM leukemia cells; [11]) [µM] | IC50 (U87MG. ΔEGFR cells; [12]) [µM] | IC50 (U87MG glioblastoma cells; [13]) [µM] | IC50 [6, 14] [µM] | IC50 ([1]; ADR5000, 72 h) [µM] | IC50 ([2]; MDA-MB-231, 72 h) [µM] | IC50 (MDA-MB231/BCRP cells) [µM] | IC50 (normal AML12 hepatocytes; AML12, 72 h) [µM] | IC50 (CCRF-CEM leukemia cells; CCRF-CEM) [µM] | IC50 ([4]; HCT-116, 72 h) [µM] | IC50 ([5]; HCT-116, 72 h) [µM] | IC50 (U87MG. ΔEGFR cells) [µM] | IC50 (U87MG glioblastoma cells) [µM] | IC50 ([6]; HepG2, 72 h) [µM] | other results
COc1c(O)ccc2c1C(O)N(C)c1c-2ccc2cc3c(cc12)OCO3 (stereo not drawn) [Compound 1, 1-methoxy-12-methyl-12,13-dihydro-[1,3]dioxolo[4′,5′:4,5]benzo[1,2-c]phenanthridine-2,13-diol] | 31.6 ± 3.48 | 30.1 ± 4.12 | 65 ± 5.37 | > 107 | 0.24 ± 0.01 | 61.8 ± 4.68 | 60.6 ± 7.29 | 22.4 ± 1.97 |  |  |  |  |  |  |  |  |  |  | IC50 [3]: ≤ 65 µM; IC50 ([4]; HCT-116, HCT116 (p53+/+) colon cancer cells, resazurin assay, 72 h): 42.5 ± 3.22 µM; IC50 ([5]; HCT-116, HCT116 (p53-/-) resistant subline, resazurin assay, 72 h): 62.3 ± 4.41 µM
COc1c(O)ccc2c1c[n+](C)c1c3cc4c(cc3ccc21)OCO4 [Compound 2, isofagaridine] |  |  |  |  |  |  |  |  | 20.4 ± 2.16 | 41.4 ± 3.44 | 114 ± 9.82 | > 120 | 0.3 ± 0.04 | 87.1 ± 7.55 | > 120 | 115 ± 13.8 | 105 ± 9.16 | 26.7 ± 3.15 | 
COc1c2cc3c(cc2nc2occc12)OCO3 [Compound 3, maculine] |  |  |  |  |  |  |  |  | 63.1 ± 3.75 | > 165 | > 165 | > 165 | 89.1 ± 6.22 | > 165 | > 165 | > 165 | > 165 | > 165 | 
COc1cc2nc3occc3c(OC)c2cc1OC [Compound 4, kokusaginine] |  |  |  |  |  |  |  |  | 44.6 ± 3.92 | 62 ± 7.24 | > 154 | > 154 | 49.8 ± 5.04 | 120 ± 13.1 | > 154 | > 154 | 70.1 ± 6.4 | 90.8 ± 8.86 | 
COc1cccc2c1C(=O)c1c(O)c3c(c(O)c1C2=O)C[C@@](O)(C(=O)CO)C[C@@H]3O[C@H]1C[C@H](N)[C@H](O)[C@H](C)O1 [Doxorubicin, doxorubicin, reference compound] | 195 ± 14.3 | 1.1 ± 0.28 | 7.83 ± 0.47 | > 73.6 | 0.2 ± 0.06 | 6.11 ± 0.57 | 1.06 ± 0.15 | 3.83 ± 0.94 |  |  |  |  |  | 1.41 ± 0.29 | 4.06 ± 0.07 |  |  |  | 
